Data on 16 compounds can be found in PubChem BioAssay (NCI).

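Results reflect a 48-hour exposure of cells in 96-well plates to compound at five concentrations. TGI is the concentration that stops growth completely.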

Test systems include U251 CNS; HOP-62 NSCLC; A549 NSCLC; LOX IMVI melanoma; DU-145 prostate; SN12C renal; BT-549 breast; COLO 205 colon; A498 renal; IGROV1 ovarian; K-562 leukemia; OVCAR-5 ovarian; SNB-19 CNS.
Experiment in all cases: NCI tumour cell line growth inhibition, 48 h

On to `O=C1C(Br)=CC2(C=C1Br)CCNC1=C2C(=O)c2ncccc2C1=O`, for which the TGI with U251 CNS came to 5.6 µM; with HOP-62 NSCLC it was 1.73 µM; in the experiment with A549 NSCLC, 3.32 µM; in the experiment on LOX IMVI melanoma it was 1.53 µM; in the experiment with DU-145 prostate, 3.06 µM; in the experiment with SN12C renal, 2.5 µM. For the same compound, the TGI in the experiment with BT-549 breast is 2.73 µM; in the experiment with COLO 205 colon it was 3.6 µM; in the experiment on A498 renal, 2.62 µM; in the experiment on IGROV1 ovarian, 2.03 µM; in the experiment on K-562 leukemia, 0.516 µM; in the experiment on OVCAR-5 ovarian, 3.09 µM. This compound had a TGI with SNB-19 CNS of 2.77 µM.

In the case of `CCOC(=O)C(Cc1ccc(O)cc1)Nc1nc(=O)c2c(=O)oc(Cl)cc2o1` (stereo not drawn), the TGI in the experiment on U251 CNS came to 21.9 µM; in the experiment with HOP-62 NSCLC it was 26.7 µM; in the experiment with A549 NSCLC, 34.7 µM; in the experiment with LOX IMVI melanoma, 27.9 µM; with DU-145 prostate, 51.1 µM; with SN12C renal it was 36.8 µM. For the same compound, the TGI with BT-549 breast turned out to be 14.1 µM; with COLO 205 colon it was 37.9 µM; in the experiment on A498 renal, 35.3 µM; in the experiment with IGROV1 ovarian, 19.4 µM; with K-562 leukemia, 31.6 µM; in the experiment on OVCAR-5 ovarian, 34.7 µM. This compound also showed a TGI with SNB-19 CNS of 27.3 µM.

For `CC(=O)OC(CCC1(C)OC1COc1ccc(CCNC(=O)C=C(C)C)cc1)C(C)(C)OC(C)=O` (stereo not drawn), the TGI in the experiment with U251 CNS, in the experiment with HOP-62 NSCLC, in the experiment on A549 NSCLC, with LOX IMVI melanoma, in the experiment with DU-145 prostate and in the experiment on SN12C renal was more than 100 µM each time. Also, the TGI in the experiment on BT-549 breast was 25.4 µM; in the experiment with COLO 205 colon, more than 92.1 µM; with A498 renal it was more than 100 µM; in the experiment with IGROV1 ovarian it was more than 100 µM; with K-562 leukemia, more than 100 µM; with OVCAR-5 ovarian, more than 100 µM. Besides, in the experiment with SNB-19 CNS, the TGI was more than 100 µM.

As for `O=C(Cn1c2ccc(Br)cc2c2nc3ccccc3nc21)NNC(=S)NC1CCCCC1`, the TGI came out at 28.3 µM with U251 CNS; 30.6 µM in the experiment with HOP-62 NSCLC; 22.4 µM in the experiment on A549 NSCLC; 24.9 µM in the experiment on LOX IMVI melanoma; 29.4 µM with DU-145 prostate; 35.6 µM in the experiment on SN12C renal. Also, the TGI with BT-549 breast is 42.8 µM; in the experiment on COLO 205 colon, 26 µM; with A498 renal, 35.1 µM; with IGROV1 ovarian, 23.6 µM; in the experiment with K-562 leukemia, 34.2 µM; with OVCAR-5 ovarian, 38.9 µM. This compound also came in with a TGI in the experiment on SNB-19 CNS of 33.8 µM.

Turning to `COc1ccc(C2c3cc4c(cc3OC(N3CCOCC3)C2C)OCO4)cc1` (stereo not drawn), the TGI with U251 CNS was 68.1 µM; in the experiment with HOP-62 NSCLC, more than 72.2 µM; in the experiment on A549 NSCLC it was more than 90.6 µM; in the experiment with LOX IMVI melanoma, more than 79.5 µM; in the experiment on DU-145 prostate, more than 100 µM; in the experiment on SN12C renal, more than 100 µM. Further, the TGI was more than 100 µM in the experiment on BT-549 breast; more than 100 µM with COLO 205 colon; 34.8 µM in the experiment with A498 renal; more than 100 µM in the experiment on IGROV1 ovarian; more than 31.6 µM in the experiment with K-562 leukemia; more than 87.5 µM with OVCAR-5 ovarian. Also, in the experiment with SNB-19 CNS, the TGI is more than 96.7 µM.

Consider `O=C1OCC2OC(=O)c3cc(O)c(O)c(O)c3-c3c(O)c(O)c(O)c4c3C(=O)OC(C2OC(=O)c2cc(O)c(O)c(O)c2-c2c1cc(O)c(O)c2O)C1OC(=O)C2C4=C(O)C(=O)C23Oc2cc(O)c4c(c2[C@H]13)O[C@H](c1ccc(O)c(O)c1)[C@@H](O)C4` (stereo partly drawn), for which the TGI in the experiment with U251 CNS is 42.7 µM; in the experiment on HOP-62 NSCLC, more than 100 µM; in the experiment with A549 NSCLC it was more than 100 µM; with LOX IMVI melanoma, 38.3 µM; in the experiment with DU-145 prostate, more than 100 µM; in the experiment with SN12C renal, 42 µM. In addition, the TGI in the experiment on BT-549 breast is 83.3 µM; with COLO 205 colon, 54.9 µM; in the experiment with A498 renal it was more than 100 µM; with IGROV1 ovarian it was more than 100 µM; in the experiment with K-562 leukemia, 72.3 µM; in the experiment on OVCAR-5 ovarian, 36.2 µM. Also, the TGI in the experiment with SNB-19 CNS is more than 100 µM.

On to `CN(C)CCCNc1ccc2ncn3c4ccc(O)cc4c(=O)c1c23`, for which the TGI in the experiment on U251 CNS is 4.6 µM; in the experiment with HOP-62 NSCLC, 8.97 µM; in the experiment with A549 NSCLC it was 5.82 µM; in the experiment with LOX IMVI melanoma, 3.13 µM; in the experiment on DU-145 prostate, 21.2 µM; with SN12C renal, 16.2 µM. The TGI in the experiment on BT-549 breast is 31.9 µM; in the experiment on COLO 205 colon it was 15.3 µM; with A498 renal it was 7.6 µM; with IGROV1 ovarian, 10.5 µM; in the experiment with K-562 leukemia, 28 µM; in the experiment on OVCAR-5 ovarian, 15.7 µM. In addition, the TGI in the experiment with SNB-19 CNS was determined as 20.1 µM.

For `O=C1CCSCCC(=O)Nc2ccccc2N1`, the TGI in the experiment on U251 CNS, in the experiment with HOP-62 NSCLC, with A549 NSCLC, with LOX IMVI melanoma, in the experiment on DU-145 prostate and in the experiment on SN12C renal was more than 100 µM throughout. In addition, the TGI with BT-549 breast, in the experiment on COLO 205 colon, in the experiment with A498 renal, in the experiment on IGROV1 ovarian, in the experiment on K-562 leukemia and in the experiment on OVCAR-5 ovarian was more than 100 µM throughout. In the experiment on SNB-19 CNS, this compound displayed a TGI of more than 100 µM.

In the case of `C=CC1(CC[C@]2(c3ccc(OC)c(OC)c3)C=[N+]([O-])O[C@H](O[C@@H]3CCCC[C@H]3C(C)(C)c3ccccc3)C2)OCC(C)(C)CO1`, the TGI with U251 CNS is more than 50.5 µM; in the experiment with HOP-62 NSCLC, 36.5 µM; in the experiment on A549 NSCLC it was more than 54.8 µM; in the experiment with LOX IMVI melanoma, 35.1 µM; in the experiment with DU-145 prostate it was 49.9 µM; with SN12C renal, 22.8 µM. For the same compound, the TGI is 98.6 µM in the experiment with BT-549 breast; more than 53.3 µM with COLO 205 colon; more than 61 µM with A498 renal; 23.7 µM in the experiment with IGROV1 ovarian; more than 56.9 µM in the experiment with K-562 leukemia; 39 µM in the experiment on OVCAR-5 ovarian. The TGI in the experiment with SNB-19 CNS is more than 54.1 µM.

On to `COc1ccc(/C(Cl)=C(\C#N)c2ccc(OC)c(OC)c2)cc1OC`, for which the TGI in the experiment with U251 CNS, in the experiment with HOP-62 NSCLC, in the experiment on A549 NSCLC, in the experiment on LOX IMVI melanoma, in the experiment on DU-145 prostate and in the experiment on SN12C renal was more than 100 µM in each case. Further, the TGI in the experiment on BT-549 breast, with COLO 205 colon, with A498 renal, in the experiment with IGROV1 ovarian, with K-562 leukemia and in the experiment on OVCAR-5 ovarian was more than 100 µM in each case. In the experiment on SNB-19 CNS, the TGI was more than 100 µM.

Take `Cc1c2ccc3ccccc3c2c[n+]2ccccc12`: the TGI in the experiment on U251 CNS is 15.6 µM; in the experiment with HOP-62 NSCLC, 45.7 µM; with A549 NSCLC it was more than 100 µM; in the experiment with LOX IMVI melanoma it was more than 78.4 µM; in the experiment with DU-145 prostate, more than 76 µM; in the experiment on SN12C renal, 13.4 µM. The TGI in the experiment with BT-549 breast was 14.3 µM; in the experiment on COLO 205 colon it was 16.5 µM; with A498 renal it was more than 94.4 µM; in the experiment on IGROV1 ovarian, more than 100 µM; in the experiment with K-562 leukemia it was 54.6 µM; in the experiment on OVCAR-5 ovarian, more than 100 µM. Besides, the TGI in the experiment with SNB-19 CNS stood at 23.1 µM.

In the case of `NCCCNCCCCN1CCOC1=O`, the TGI in the experiment with U251 CNS, in the experiment with HOP-62 NSCLC, in the experiment with A549 NSCLC, in the experiment with LOX IMVI melanoma, in the experiment with DU-145 prostate and in the experiment with SN12C renal was more than 100 µM each time. Further, the TGI in the experiment on BT-549 breast, with COLO 205 colon, with A498 renal, with IGROV1 ovarian, in the experiment with K-562 leukemia and in the experiment on OVCAR-5 ovarian was more than 100 µM each time. In the experiment on SNB-19 CNS, this compound yielded a TGI of more than 100 µM.

As for `CN1CCCOC(c2ccc(Cl)cc2)O1` (stereo not drawn), the TGI with U251 CNS, in the experiment with HOP-62 NSCLC, in the experiment on A549 NSCLC, in the experiment with LOX IMVI melanoma, with DU-145 prostate and in the experiment with SN12C renal was more than 100 µM throughout. Further, the TGI in the experiment with BT-549 breast, in the experiment with COLO 205 colon, in the experiment with A498 renal, in the experiment on IGROV1 ovarian, with K-562 leukemia and in the experiment on OVCAR-5 ovarian was more than 100 µM each time. The compound also showed a TGI with SNB-19 CNS of more than 100 µM.

Take `N#Cc1cc2c(cc1Cl)Sc1nnc(Nc3ccccc3)n1S2(=O)=O`: the TGI in the experiment on U251 CNS is 3.6 µM; in the experiment with HOP-62 NSCLC it was 3.36 µM; in the experiment with A549 NSCLC, 16 µM; in the experiment with LOX IMVI melanoma, 3.75 µM; in the experiment with DU-145 prostate it was 5.2 µM; in the experiment on SN12C renal, 3.24 µM. The TGI in the experiment on BT-549 breast was 8.12 µM; with COLO 205 colon, 4.75 µM; with A498 renal it was 20.8 µM; in the experiment with IGROV1 ovarian it was 5.76 µM; in the experiment on K-562 leukemia, 11.1 µM; in the experiment on OVCAR-5 ovarian it was 3.8 µM. The TGI with SNB-19 CNS was found to be 6.66 µM.

Take `Cc1n[n+](Cc2ccccc2)c2sc(N)nn12`: the TGI with U251 CNS, with HOP-62 NSCLC, in the experiment on A549 NSCLC, in the experiment with LOX IMVI melanoma, with DU-145 prostate and in the experiment with SN12C renal was more than 100 µM each time. For the same compound, the TGI with BT-549 breast, in the experiment with COLO 205 colon, in the experiment with A498 renal, in the experiment on IGROV1 ovarian, in the experiment with K-562 leukemia and in the experiment on OVCAR-5 ovarian was more than 100 µM throughout. The compound also came in with a TGI with SNB-19 CNS of more than 100 µM.

With `COc1cc2c(cc1O)NC(=O)[C@@H]1CCCN1C2=O`, the TGI in the experiment with U251 CNS, with HOP-62 NSCLC, in the experiment with A549 NSCLC, with LOX IMVI melanoma, in the experiment with DU-145 prostate and with SN12C renal was more than 100 µM each time. The TGI in the experiment on BT-549 breast, in the experiment on COLO 205 colon, in the experiment on A498 renal, in the experiment on IGROV1 ovarian, in the experiment with K-562 leukemia and in the experiment with OVCAR-5 ovarian was more than 100 µM throughout. The compound further yielded a TGI in the experiment on SNB-19 CNS of more than 100 µM.
